Measured values as given in patent US20070134261A1, “Effectors of innate immunity” (priority 2001, published 2007).
Residues, ends and D or L forms follow the SMILES beside them.

Tests used:
A549 epithelial cells = assay: Human Operon arrays (PRHU04-S1) of A549 cells treated with peptide alone (Tables 31-37, 53); details: peptide 50 μg/ml, 4 h, A549 cells
[1] = system: human bronchial epithelial cells (16HBEo14); assay: Induction of IL-8 in HBE cells; format: cell-based; details: for IL-8: 8 h
Protocol: The murine macrophage cell line RAW 264.7, THP-1 cells (human monocytes), a human epithelial cell line (A549), human bronchial epithelial cells (16HBEo14), and whole human blood were used. HBE cells were grown in MEM with Earle's. THP-1 cells were grown and maintained in RPMI 1640 medium. The RAW and A549 cell lines were maintained in DMEM supplemented with 10% fetal calf serum. […] DMEM was aspirated from cells grown overnight and replaced with fresh medium. After incubation of the cells with peptide, the release of chemokines into the culture supernatant was determined by ELISA (R&D Systems, Minneapolis, Minn.).

For `CSCC[C@H](NC(=O)[C@H](CO)NC(=O)[C@@H](NC(=O)[C@H](CCCCN)NC(=O)[C@H](Cc1ccccc1)NC(=O)[C@H](CS)NC(=O)[C@H](CO)NC(=O)[C@H](CCCNC(=N)N)NC(=O)[C@@H](N)CCCCN)C(C)C)C(=O)N[C@@H](CCCNC(=N)N)C(=O)NCC(=O)N[C@H](C(=O)N[C@@H](CO)C(=O)N[C@@H](CCCNC(=N)N)C(=O)N[C@@H](CCCNC(=N)N)C(=O)N[C@@H](CCCNC(=N)N)C(=O)N[C@@H](CS)C(=O)N[C@@H](CCCCN)C(=O)O)C(C)C` [SEQ ID NO: 27] (H-KRSCFKVSMRGVSRRRCK-OH; N-terminus and C-terminus assumed), the “ID#:ctrl expression ratio, AB002359 phosphoribosyl formylglycina midine synthase” value (A549 epithelial cells) was 2.7, the “ID#:ctrl expression ratio, AB006537 IL-1R accessory protein” value (A549 epithelial cells) was 7.0 and the “ID#:ctrl expression ratio, AB011124 KIAA0552 gene product” value (A549 epithelial cells) was 72.0. For the same compound, the “ID#:ctrl expression ratio, AB014536 copine III” value (A549 epithelial cells) was 9.5, the “ID#:ctrl expression ratio, AB018285 KIAA0742 protein” value (A549 epithelial cells) was 13.9 and the “ID#:ctrl expression ratio, AB020659 KIAA0852 protein” value (A549 epithelial cells) was 7.6. The “ID#:ctrl expression ratio, AC004774 distal-less homeo box 5” value (A549 epithelial cells) was 6.3, the “ID#:ctrl expression ratio, AC005154 unkown” value (A549 epithelial cells) was 7.2 and the “ID#:ctrl expression ratio, AF000237 1-acylglycerol-3-phosphate O-acyltransferase 2” value (A549 epithelial cells) was 2.5. For the same compound, the “ID#:ctrl expression ratio, AF012086 RAN binding protein 2-like 1” value (A549 epithelial cells) was 4.0, the “ID#:ctrl expression ratio, AF030555 fatty-acid-Coenzyme A ligase_long-chain 4” value (A549 epithelial cells) was 2.2 and the “ID#:ctrl expression ratio, AF035309 proteasome 26S subunit ATPase 5” value (A549 epithelial cells) was 6.6. For the same compound, the “ID#:ctrl expression ratio, AF038664 UDP-Gal:beta GlcNAc beta 1_4-galactosyltransferase” value (A549 epithelial cells) was 22.2, the “ID#:ctrl expression ratio, AF042378 spindle pole body protein” value (A549 epithelial cells) was 3.0 and the “ID#:ctrl expression ratio, AF052138 unknown” value (A549 epithelial cells) was 2.8. For the same compound, the “ID#:ctrl expression ratio, AF052183 unknown” value (A549 epithelial cells) was 3.7, the “ID#:ctrl expression ratio, AF071510 lecithin retinol acyltransferase” value (A549 epithelial cells) was 10.3 and the “ID#:ctrl expression ratio, AF074723 RNA polymerase II transcriptional regulation mediator” value (A549 epithelial cells) was 3.2. For the same compound, the “ID#:ctrl expression ratio, AF080579 Homo sapiens integral membrane protein” value (A549 epithelial cells) was 3.0, the “ID#:ctrl expression ratio, AF088868 fibrousheathin II” value (A549 epithelial cells) was 10.0 and the “ID#:ctrl expression ratio, AF093265 Homer neuronal immediate early gene_3” value (A549 epithelial cells) was 13.3. For the same compound, the “ID#:ctrl expression ratio, AF124735 LIM HOX gene 2” value (A549 epithelial cells) was 4.4, the “ID#:ctrl expression ratio, AF131831 unknown” value (A549 epithelial cells) was 7.0 and the “ID#:ctrl expression ratio, AF151043 hypothetical protein” value (A549 epithelial cells) was 2.2. The “ID#:ctrl expression ratio, AF251040 putative nuclear protein” value (A549 epithelial cells) was 3.4, the “ID#:ctrl expression ratio, AJ005273 antigenic determinant of recA protein” value (A549 epithelial cells) was 11.1 and the “ID#:ctrl expression ratio, AK000161 hypothetical protein” value (A549 epithelial cells) was 8.7. For the same compound, the “ID#:ctrl expression ratio, AK000227 hypothetical protein” value (A549 epithelial cells) was 7.1, the “ID#:ctrl expression ratio, AK000541 hypothetical protein” value (A549 epithelial cells) was 13.9 and the “ID#:ctrl expression ratio, AK000576 hypothetical protein” value (A549 epithelial cells) was 9.3. The “ID#:ctrl expression ratio, AK001075 hypothetical protein” value (A549 epithelial cells) was 2.6, the “ID#:ctrl expression ratio, AK001135 Sec23-interacting protein p125” value (A549 epithelial cells) was 4.5 and the “ID#:ctrl expression ratio, AK001154 hypothetical protein” value (A549 epithelial cells) was 4.4. The “ID#:ctrl expression ratio, AK001890 unknown” value (A549 epithelial cells) was 3.5, the “ID#:ctrl expression ratio, AL024493 unknown” value (A549 epithelial cells) was 13.5 and the “ID#:ctrl expression ratio, AL031121 unknown” value (A549 epithelial cells) was 3.7. For the same compound, the “ID#:ctrl expression ratio, AL031588 hypothetical protein” value (A549 epithelial cells) was 20.2, the “ID#:ctrl expression ratio, AL035562 paired box gene 1” value (A549 epithelial cells) was 81.9 and the “ID#:ctrl expression ratio, AL080077 unknown” value (A549 epithelial cells) was 2.0. For the same compound, the “ID#:ctrl expression ratio, AL096803 unknown” value (A549 epithelial cells) was 18.3, the “ID#:ctrl expression ratio, AL110125 unknown” value (A549 epithelial cells) was 2.7 and the “ID#:ctrl expression ratio, AL133051 unknown” value (A549 epithelial cells) was 6.3. For the same compound, the “ID#:ctrl expression ratio, AL133605 unknown” value (A549 epithelial cells) was 4.2, the “ID#:ctrl expression ratio, AL137268 KIAA0759 protein” value (A549 epithelial cells) was 2.3 and the “ID#:ctrl expression ratio, AL137461 unknown” value (A549 epithelial cells) was 9.0. The “ID#:ctrl expression ratio, AL137540 unknown” value (A549 epithelial cells) was 2.6, the “ID#:ctrl expression ratio, AL137577 unknown” value (A549 epithelial cells) was 6.2 and the “ID#:ctrl expression ratio, AL137718 unknown” value (A549 epithelial cells) was 8.0. For the same compound, the “ID#:ctrl expression ratio, D00760 proteasome subunit_alpha type_2” value (A549 epithelial cells) was 2.6, the “ID#:ctrl expression ratio, D12676 CD36 antigen” value (A549 epithelial cells) was 3.4 and the “ID#:ctrl expression ratio, D31891 SET domain_bifurcated_1” value (A549 epithelial cells) was 6.0. For the same compound, the “ID#:ctrl expression ratio, D42053 site-1 protease” value (A549 epithelial cells) was 7.1, the “ID#:ctrl expression ratio, D50405 histone deacetylase 1” value (A549 epithelial cells) was 7.2 and the “ID#:ctrl expression ratio, D80000 Segregation of mitotic chromosomes 1” value (A549 epithelial cells) was 2.5. For the same compound, the “ID#:ctrl expression ratio, D87120 osteoblast protein” value (A549 epithelial cells) was 2.0, the “ID#:ctrl expression ratio, J03068 N-acylaminoacyl-peptide hydrolase” value (A549 epithelial cells) was 5.0 and the “ID#:ctrl expression ratio, L34587 transcription elongation factor B” value (A549 epithelial cells) was 16.3. The “ID#:ctrl expression ratio, M34175 adaptor-related protein complex 2 beta 1 subunit” value (A549 epithelial cells) was 3.1, the “ID#:ctrl expression ratio, M81933 cell division cycle 25A” value (A549 epithelial cells) was 3.1 and the “ID#:ctrl expression ratio, M97925 defensin alpha 5_Paneth cell-specific” value (A549 epithelial cells) was 35.9. For the same compound, the “ID#:ctrl expression ratio, NM_004732 potassium voltage-gated channel” value (A549 epithelial cells) was 4.0, the “ID#:ctrl expression ratio, NM_004862 LPS-induced TNF-alpha factor” value (A549 epithelial cells) was 4.8 and the “ID#:ctrl expression ratio, NM_006963 zinc finger protein 22” value (A549 epithelial cells) was 7.6. The “ID#:ctrl expression ratio, NM_013329 GC-rich sequence DNA-binding factor candidate” value (A549 epithelial cells) was 14.3, the “ID#:ctrl expression ratio, NM_013393 cell division protein FtsJ” value (A549 epithelial cells) was 5.8 and the “ID#:ctrl expression ratio, NM_014366 putative nucleotide binding protein_estradiol-induced” value (A549 epithelial cells) was 4.3. The “ID#:ctrl expression ratio, NM_016015 CGI-68 protein” value (A549 epithelial cells) was 2.3, the “ID#:ctrl expression ratio, S49953 DNA-binding transcriptional activator” value (A549 epithelial cells) was 4.0 and the “ID#:ctrl expression ratio, S57296 HER2/neu receptor” value (A549 epithelial cells) was 12.1. The “ID#:ctrl expression ratio, U00115 zinc finger protein 51” value (A549 epithelial cells) was 2.2, the “ID#:ctrl expression ratio, U13666 G protein-coupled receptor 1” value (A549 epithelial cells) was 5.4 and the “ID#:ctrl expression ratio, U33547 MHC class II antigen HLA-DRB6 mRNA” value (A549 epithelial cells) was 5.3. For the same compound, the “ID#:ctrl expression ratio, U67156 mitogen-activated protein kinase kinase kinase 5” value (A549 epithelial cells) was 3.0, the “ID#:ctrl expression ratio, U68018 MAD homolog 2” value (A549 epithelial cells) was 2.2 and the “ID#:ctrl expression ratio, U71092 G protein-coupled receptor 24” value (A549 epithelial cells) was 9.1. The “ID#:ctrl expression ratio, U78305 protein phosphatase 1D” value (A549 epithelial cells) was 13.0, the “ID#:ctrl expression ratio, U88528 cAMP responsive element binding protein” value (A549 epithelial cells) was 5.4 and the “ID#:ctrl expression ratio, U88666 SFRS protein kinase 2” value (A549 epithelial cells) was 5.9. The “ID#:ctrl expression ratio, X59770 IL-1R type II” value (A549 epithelial cells) was 4.7, the “ID#:ctrl expression ratio, X62744 MHC class II DM alpha” value (A549 epithelial cells) was 4.7 and the “ID#:ctrl expression ratio, X63563 polymerase II polypeptide B” value (A549 epithelial cells) was 8.1. The “ID#:ctrl expression ratio, X89399 RAS p21 protein activator” value (A549 epithelial cells) was 14.9.
In the case of `CC[C@H](C)[C@H](N)C(=O)N[C@@H](CC(C)C)C(=O)N1CCC[C@H]1C(=O)N[C@@H](Cc1c[nH]c2ccccc12)C(=O)N[C@@H](CCCCN)C(=O)N[C@@H](Cc1c[nH]c2ccccc12)C(=O)N1CCC[C@H]1C(=O)N[C@@H](Cc1c[nH]c2ccccc12)C(=O)N[C@@H](Cc1c[nH]c2ccccc12)C(=O)N1CCC[C@H]1C(=O)N[C@@H](Cc1c[nH]c2ccccc12)C(=O)N[C@@H](CCCNC(=N)N)C(=O)N[C@@H](CCCNC(=N)N)C(N)=O` [SEQ ID NO: 2], the “induction of IL-8” value [1] is reported as “significantly induced IL-8”, the IL-8 ([1]; peptide 0.1 μg/ml) is reported as 670 ± 155 pg/mL and the IL-8 ([1]; peptide 1 μg/ml) is reported as 712 ± 205 pg/mL. For the same compound, the IL-8 ([1]; peptide 10 μg/ml) was 941 ± 15 pg/mL and the IL-8 ([1]; peptide 50 μg/ml) was 1490 ± 715 pg/mL.
